The results in this text go back to patent US12084472B2 (Ardelyx, Inc., priority 2015, dated 2024).

This assay deals with T1, human TGR5 (Homo sapiens, UniProt Q8TDU6).
T1 construct: expressed in transfected cells; host or cells: HEK293
T1 sequence (Q8TDU6 1-330): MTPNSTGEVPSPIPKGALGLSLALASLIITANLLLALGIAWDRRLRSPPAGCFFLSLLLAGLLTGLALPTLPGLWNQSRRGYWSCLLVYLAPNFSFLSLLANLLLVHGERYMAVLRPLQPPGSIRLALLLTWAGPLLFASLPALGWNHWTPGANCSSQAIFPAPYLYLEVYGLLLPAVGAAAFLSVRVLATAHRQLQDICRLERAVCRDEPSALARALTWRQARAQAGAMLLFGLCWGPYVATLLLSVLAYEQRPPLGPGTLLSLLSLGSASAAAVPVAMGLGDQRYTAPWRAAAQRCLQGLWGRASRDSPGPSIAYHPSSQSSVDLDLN
Description: Cell-based TGR5 assay (cAMP generation, HTRF). Conditions: HEK293 cells stably transfected with human TGR5; cAMP by HTRF; 30 minutes at 37° C.; read-out: pEC50 Human TGR5 (converted). In short, it runs like this:
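First, compounds in 3-fold serial dilution were placed in HBSS with 10 mM HEPES pH 7.4 and 0.5 mM IBMX. Next, human TGR5-expressing HEK293 cells were added and incubated 30 min at 37° C. Finally, cAMP was detected by HTRF and pEC50 derived by logistic fitting.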
In general terms: Time-resolved FRET reads energy transfer from a long-lived donor to a nearby acceptor.
For `CC(CCCC(=O)NCCN1CCN(CC(=O)NC[C@H](O)[C@@H](O)[C@H](O)[C@H](O)CO)CC1)c1ccc(Cl)c(CNC2(c3cnccc3-c3ccccc3OC3CC3)CC2)c1` (stereo partly drawn) [Compound I-324, 5-{4-chloro-3-[({1-[4-(2-cyclopropoxyphenyl)pyridin-3-yl]cyclopropyl}amino)methyl]phenyl}-N-{2-[4-({[(2S,3R,4R,5R)-2,3,4,5,6-pentahydroxyhexyl]carbamoyl}methyl)piperazin-1-yl]ethyl}hexanamide], the EC50 was less than 100 nM. Regarding `CC(CCCC(=O)N(C)C[C@H](O)[C@@H](O)[C@H](O)[C@H](O)CO)c1ccc(Cl)c(CNC2(c3cnccc3-c3ccccc3OC3CC3)CC2)c1` (stereo partly drawn) [Compound I-327, 5-{4-chloro-3-[({1-[4-(2-cyclopropoxyphenyl)pyridin-3-yl]cyclopropyl}amino)methyl]phenyl}-N-methyl-N-[(2S,3R,4R,5R)-2,3,4,5,6-pentahydroxyhexyl]hexanamide], the EC50 is less than 100 nM. The value for `CC(CCCCC(=O)N(C)C[C@H](O)[C@@H](O)[C@H](O)[C@H](O)CO)c1ccc(Cl)c(CNC2(c3cnccc3-c3ccccc3OC3CC3)CC2)c1` (stereo partly drawn) [Compound I-330, 6-{4-chloro-3-[({1-[4-(2-cyclopropoxyphenyl)pyridin-3-yl]cyclopropyl}amino)methyl]phenyl}-N-methyl-N-[(2S,3R,4R,5R)-2,3,4,5,6-pentahydroxyhexyl]heptanamide] was less than 100 nM; that for `CC(CCCC(=O)N(CCO)C[C@@H](O)[C@H](O)[C@@H](O)[C@@H](O)CO)c1ccc(Cl)c(CNC2(c3cnccc3-c3ccccc3OC3CC3)CC2)c1` (stereo partly drawn) [Compound I-331, 5-{4-chloro-3-[({1-[4-(2-cyclopropoxyphenyl)pyridin-3-yl]cyclopropyl}amino)methyl]phenyl}-N-(2-hydroxyethyl)-N-[(2R,3S,4S,5S)-2,3,4,5,6-pentahydroxyhexyl]hexanamide] was less than 100 nM; that for `CC(CCCC(=O)N(CC(N)=O)C[C@H](O)[C@@H](O)[C@H](O)[C@H](O)CO)c1ccc(Cl)c(CNC2(c3cnccc3-c3ccccc3OC3CC3)CC2)c1` (stereo partly drawn) [Compound I-332, N-(carbamoylmethyl)-5-{4-chloro-3-[({1-[4-(2-cyclopropoxyphenyl)pyridin-3-yl]cyclopropyl}amino)methyl]phenyl}-N-[(2S,3R,4R,5R)-2,3,4,5,6-pentahydroxyhexyl]hexanamide] was less than 100 nM. The same measure for `COCCN(C[C@@H](O)[C@H](O)[C@@H](O)[C@@H](O)CO)C(=O)CCCC(C)c1ccc(Cl)c(CNC2(c3cnccc3-c3ccccc3OC3CC3)CC2)c1` (stereo partly drawn) [Compound I-333, 5-{4-chloro-3-[({1-[4-(2-cyclopropoxyphenyl)pyridin-3-yl]cyclopropyl}amino)methyl]phenyl}-N-(2-methoxyethyl)-N-[(2R,3S,4S,5S)-2,3,4,5,6-pentahydroxyhexyl]hexanamide]: less than 100 nM; for `CC(CCCC(=O)N(CCCO)C[C@H](O)[C@@H](O)[C@H](O)[C@H](O)CO)c1ccc(Cl)c(CNC2(c3cnccc3-c3ccccc3OC3CC3)CC2)c1` (stereo partly drawn) [Compound I-334, 5-{4-chloro-3-[({1-[4-(2-cyclopropoxyphenyl)pyridin-3-yl]cyclopropyl}amino)methyl]phenyl}-N-(3-hydroxypropyl)-N-[(2S,3R,4R,5R)-2,3,4,5,6-pentahydroxyhexyl]hexanamide]: less than 100 nM. The value for `CC(CCCC(=O)N(CCC(N)=O)C[C@H](O)[C@@H](O)[C@H](O)[C@H](O)CO)c1ccc(Cl)c(CNC2(c3cnccc3-c3ccccc3OC3CC3)CC2)c1` (stereo partly drawn) [Compound I-335, N-(2-carbamoylethyl)-5-{4-chloro-3-[({1-[4-(2-cyclopropoxyphenyl)pyridin-3-yl]cyclopropyl}amino)methyl]phenyl}-N-[(2S,3R,4R,5R)-2,3,4,5,6-pentahydroxyhexyl]hexanamide] was 126 to 1000 nM.
